Assay results taken from ChEMBL document CHEMBL5620362 (Eur J Med Chem, 2023).

Key:
[1] = molecular target: T1, Nuclear receptor ROR-gamma (Homo sapiens, UniProt P51449); assay: Binding affinity to CM5 chip-immobilized recombinant ROR-gamma LBD (unknown origin) assessed as dissociation constant by SPR analysis
T1 sequence (P51449 whole entry): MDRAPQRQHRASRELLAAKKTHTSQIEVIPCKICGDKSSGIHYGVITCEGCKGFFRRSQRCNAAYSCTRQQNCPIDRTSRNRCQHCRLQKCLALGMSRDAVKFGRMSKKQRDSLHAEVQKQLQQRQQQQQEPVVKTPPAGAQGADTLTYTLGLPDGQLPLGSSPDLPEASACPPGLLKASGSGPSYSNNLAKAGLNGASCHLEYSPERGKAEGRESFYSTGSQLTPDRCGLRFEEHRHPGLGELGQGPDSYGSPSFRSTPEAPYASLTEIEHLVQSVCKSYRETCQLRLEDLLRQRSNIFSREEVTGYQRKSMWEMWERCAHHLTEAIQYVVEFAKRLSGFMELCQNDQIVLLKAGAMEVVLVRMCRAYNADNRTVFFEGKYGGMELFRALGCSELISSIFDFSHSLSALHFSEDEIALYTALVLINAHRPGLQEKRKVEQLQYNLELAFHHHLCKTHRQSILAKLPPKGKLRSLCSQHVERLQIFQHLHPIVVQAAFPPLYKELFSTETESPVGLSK

[2] = tested on: HPAF-II; assay: Antitumor activity against human HPAF-II cells measured after 72 hrs; format: functional, cell-based
[3] = tested on: HPAF-II; assay: Induction of apoptosis in human HPAF-II cells assessed as viable cells at 1 uM incubated for 48 hrs by Annexin V-FITC/PI staining based flow cytometry (reference value: 89.73 %); format: functional; conditions: read-out: Activity
[4] = tested on: HPAF-II; assay: Induction of apoptosis in human HPAF-II cells assessed as early apoptotic cells at 1 uM incubated for 48 hrs by Annexin V-FITC/PI staining based flow cytometry (reference value: 0.90 %); format: functional
[5] = tested on: HPAF-II; assay: Induction of apoptosis in human HPAF-II cells assessed as late apoptotic cells at 1 uM incubated for 48 hrs by Annexin V-FITC/PI staining based flow cytometry (reference value: 1.28 %); format: functional
[6] = tested on: HPAF-II; assay: Induction of apoptosis in human HPAF-II cells assessed as necrotic cells at 1 uM incubated for 48 hrs by Annexin V-FITC/PI staining based flow cytometry (reference value: 8.09 %); format: functional
[7] = tested on: NCI-H23; assay: Induction of apoptosis in human NCI-H23 cells assessed as viable cells at 10 uM incubated for 48 hrs by Annexin V-FITC/PI staining based flow cytometry (reference value: 92.16 %); format: functional; conditions: read-out: Activity
[8] = tested on: NCI-H23; assay: Induction of apoptosis in human NCI-H23 cells assessed as early apoptotic cells at 10 uM incubated for 48 hrs by Annexin V-FITC/PI staining based flow cytometry (reference value: 4.17 %); format: functional
[9] = tested on: NCI-H23; assay: Induction of apoptosis in human NCI-H23 cells assessed as late apoptotic cells at 10 uM incubated for 48 hrs by Annexin V-FITC/PI staining based flow cytometry (reference value: 2.89 %); format: functional
[10] = tested on: NCI-H23; assay: Induction of apoptosis in human NCI-H23 cells assessed as necrotic cells at 10 uM incubated for 48 hrs by Annexin V-FITC/PI staining based flow cytometry (reference value: 0.78 %); format: functional

Row | Structure (SMILES) | Kd [1] [nM] | IC50 [2] [nM] | further results
1 | CN(C)CCCNC(=O)[C@]12CC[C@@H](C3(C)CC3)[C@@H]1[C@H]1CC[C@@H]3[C@@]4(C)CC[C@H](O)C(C)(C)[C@@H]4CC[C@@]3(C)[C@]1(C)CC2 | 240 | 120 | –
2 | C=C(C)[C@@H]1CC[C@]2(C(=O)N[C@@H]3CN4CCC3CC4)CC[C@]3(C)[C@H](CC[C@@H]4[C@@]5(C)CC[C@H](O)C(C)(C)[C@@H]5CC[C@]43C)[C@@H]12 | 120 | 130 | –
3 | C=C(C)[C@@H]1CC[C@]2(C(=O)NC3CCCN(C)CC3)CC[C@]3(C)[C@H](CC[C@@H]4[C@@]5(C)CC[C@H](O)C(C)(C)[C@@H]5CC[C@]43C)[C@@H]12 (stereo partly drawn) | 250 | 110 | –
4 | C=C(C)[C@@H]1CC[C@]2(C(=O)N[C@H]3CCN(C)C3)CC[C@]3(C)[C@H](CC[C@@H]4[C@@]5(C)CC[C@H](O)C(C)(C)[C@@H]5CC[C@]43C)[C@@H]12 | 1870 | 210 | –
5 | C=C(C)[C@@H]1CC[C@]2(C(=O)NCCN(CC)CCO)CC[C@]3(C)[C@H](CC[C@@H]4[C@@]5(C)CC[C@H](O)C(C)(C)[C@@H]5CC[C@]43C)[C@@H]12 | 1110 | 220 | –
6 | C=C(C)[C@@H]1CC[C@]2(C(=O)NCCCN(C)C)CC[C@]3(C)[C@H](CC[C@@H]4[C@@]5(C)C[C@H](O)C(C)(C)[C@@H]5CC[C@]43C)[C@@H]12 | 3060 | 2780 | –
7 | C=C(C)[C@@H]1CC[C@]2(C(=O)NCCN(C)CCN(C)C)CC[C@]3(C)[C@H](CC[C@@H]4[C@@]5(C)CC[C@H](O)C(C)(C)[C@@H]5CC[C@]43C)[C@@H]12 | 1880 | 380 | –
8 | C=C(C)[C@@H]1CC[C@]2(C(=O)NCCN3CCC(O)C3)CC[C@]3(C)[C@H](CC[C@@H]4[C@@]5(C)CC[C@H](O)C(C)(C)[C@@H]5CC[C@]43C)[C@@H]12 (stereo partly drawn) | 290 | 310 | –
9 | C=C(C)[C@@H]1CC[C@]2(C(=O)N[C@@H]3CCN(C)C3)CC[C@]3(C)[C@H](CC[C@@H]4[C@@]5(C)CC[C@H](O)C(C)(C)[C@@H]5CC[C@]43C)[C@@H]12 | 670 | 380 | –
10 | O=S(=O)(c1ccccc1)N(CC(F)(F)F)c1ccc(C(O)(C(F)(F)F)C(F)(F)F)cc1 [T091317] | – | – | viability at 1 µM [3]: 79.8%; Activity [4]: 8.56%; Activity [5]: 7.38%; Activity [6]: 6.3%; viability at 10 µM [7]: 90.2%; Activity [8]: 2.68%; Activity [9]: 3.82%; Activity [10]: 3.3%
11 | C=C1C[C@]2(C)[C@H]3CC[C@@H]4[C@H]5[C@H](C(=C)C)CC[C@]5(C(=O)NCCCN(C)C)CC[C@@]4(C)[C@]3(C)CC[C@H]2C(C)(C)C1=O | 6390 | 760 | –
12 | C=C(C)[C@@H]1CC[C@]2(C(=O)NCCCN(C)C)CC[C@]3(C)[C@H](CC[C@@H]4[C@@]5(C)CC[C@H](N)C(C)(C)[C@@H]5CC[C@]43C)[C@@H]12 | 4550 | 370 | –
13 | C=C(C)[C@@H]1CC[C@]2(C(=O)NCCN3CCCC3)CC[C@]3(C)[C@H](CC[C@@H]4[C@@]5(C)CC[C@H](O)C(C)(C)[C@@H]5CC[C@]43C)[C@@H]12 | 870 | 230 | –
14 | C=C(C)[C@@H]1CC[C@]2(C(=O)N[C@H]3CCCN(C)C3)CC[C@]3(C)[C@H](CC[C@@H]4[C@@]5(C)CC[C@H](O)C(C)(C)[C@@H]5CC[C@]43C)[C@@H]12 | 960 | 350 | –
15 | C=C(C)[C@@H]1CC[C@]2(C(=O)N[C@@H]3CCCN(C)C3)CC[C@]3(C)[C@H](CC[C@@H]4[C@@]5(C)CC[C@H](O)C(C)(C)[C@@H]5CC[C@]43C)[C@@H]12 | 340 | 300 | –
16 | C=C(C)[C@@H]1CC[C@]2(C(=O)NC3CCNCC3)CC[C@]3(C)[C@H](CC[C@@H]4[C@@]5(C)CC[C@H](O)C(C)(C)[C@@H]5CC[C@]43C)[C@@H]12 | 1960 | 1210 | –

More lines, main results first:

Row | Kd [1] [nM] | IC50 [2] [nM] | Structure (SMILES) | further results
17 | 420 | 350 | C=C(C)[C@@H]1CC[C@]2(C(=O)NC[C@H]3CCCN3C)CC[C@]3(C)[C@H](CC[C@@H]4[C@@]5(C)CC[C@H](O)C(C)(C)[C@@H]5CC[C@]43C)[C@@H]12 | –
18 | 2900 | 440 | C=C(C)[C@@H]1CC[C@]2(C(=O)NCC(C)(C)CN(C)C)CC[C@]3(C)[C@H](CC[C@@H]4[C@@]5(C)CC[C@H](O)C(C)(C)[C@@H]5CC[C@]43C)[C@@H]12 | –
19 | 780 | 7030 | C=C(C)[C@@H]1CC[C@]2(C(=O)NCc3cc[nH]n3)CC[C@]3(C)[C@H](CC[C@@H]4[C@@]5(C)CC[C@H](O)C(C)(C)[C@@H]5CC[C@]43C)[C@@H]12 | –
20 | 5460 | 1960 | C=C(C)[C@@H]1CC[C@]2(C(=O)Nc3nccs3)CC[C@]3(C)[C@H](CC[C@@H]4[C@@]5(C)CC[C@H](O)C(C)(C)[C@@H]5CC[C@]43C)[C@@H]12 | –
21 | 660 | 320 | C=C(C)[C@@H]1CC[C@]2(C(=O)NC[C@@H]3CCCN3C)CC[C@]3(C)[C@H](CC[C@@H]4[C@@]5(C)CC[C@H](O)C(C)(C)[C@@H]5CC[C@]43C)[C@@H]12 | –
22 | 780 | 9300 | C=C(C)[C@@H]1CC[C@]2(C(=O)NCc3cncs3)CC[C@]3(C)[C@H](CC[C@@H]4[C@@]5(C)CC[C@H](O)C(C)(C)[C@@H]5CC[C@]43C)[C@@H]12 | –
23 | 720 | 120 | C=C(C)[C@@H]1CC[C@]2(C(=O)NCCN(CC)CC)CC[C@]3(C)[C@H](CC[C@@H]4[C@@]5(C)CC[C@H](O)C(C)(C)[C@@H]5CC[C@]43C)[C@@H]12 | –
24 | – | 320 | C=C(C)[C@@H]1CC[C@]2(C(=O)NC[C@@H]3CCN(C)C3)CC[C@]3(C)[C@H](CC[C@@H]4[C@@]5(C)CC[C@H](O)C(C)(C)[C@@H]5CC[C@]43C)[C@@H]12 | –
25 | – | 360 | C=C(C)[C@@H]1CC[C@]2(C(=O)NC[C@H]3CCN(C)C3)CC[C@]3(C)[C@H](CC[C@@H]4[C@@]5(C)CC[C@H](O)C(C)(C)[C@@H]5CC[C@]43C)[C@@H]12 | –
26 | 520 | 320 | C=C(C)[C@@H]1CC[C@]2(C(=O)NCCOCCN(C)C)CC[C@]3(C)[C@H](CC[C@@H]4[C@@]5(C)CC[C@H](O)C(C)(C)[C@@H]5CC[C@]43C)[C@@H]12 | –
27 | 590 | 310 | C=C(C)[C@@H]1CC[C@]2(C(=O)NCCNc3ccncc3)CC[C@]3(C)[C@H](CC[C@@H]4[C@@]5(C)CC[C@H](O)C(C)(C)[C@@H]5CC[C@]43C)[C@@H]12 | –
